One experiment concerns the target LRRK2 (Homo sapiens, UniProt Q5S007). Nature of the experiment: NanoBRET-based ternary binding and cooperativity assay. More on the design: host or cells: HEK293 (digitonin-permeabilized). The conditions noted are these: permeabilized HEK293 cells, without VCB; read-out: IC50 LRRK2 engagement in the absence of VCB. How it is done:
The HEK293 cells were transfected with LRRK2-NanoLuc fusion vector (Promega, NV3401) following Promega's protocol and seeded into white 384-well plate (Corning3570) at a density of 6000 cells/well. The cells were then treated with 50 μg/mL of digitonin, 125 nM of LRRK2 tracer, testing compounds at decreasing concentrations (11 concentrations with 2-fold serial dilution starting from 10 μM) or testing compounds and VCB mix (11 concentrations with 2-fold serial dilution starting from 10 μM compound for the compound. The first 6 concentrations of VCB start from 32 μM with 2-fold dilution, the last 5 concentrations of VCB keep at 1 μM), and NanoBRET NanoGlo Substrate (Promega) at concentration recommended by the manufacturer's protocol. In the maximum signal control samples (DMSO control), DMSO was added instead of testing compounds. In the minimum signal control samples (no tracer control), DMSO and LRRK2 tracer dilution buffer were used to replace testing compounds and LRRK2 tracer separately. The filtered luminescence was measured within 10 min following addition of the substrate on a PHERAstar (BMG LABTECH) plate reader equipped with a 450-nm bandpass filter (donor) and a 600-nm long pass filter (acceptor). The fractional occupancy was calculated according to the equation: fractional occupancy=(mBRETtesting compound−mBRETno tracer control)/(mBRETDMSO control−mBRETno tracer control).
In general terms: Bioluminescence resonance energy transfer reports proximity on the nanometre scale.

A further experiment has as its target VHL (Homo sapiens, UniProt P40337). As to the kind of experiment: NanoBRET VHL target engagement in HEK293 cells. The note with it: for IC50: read-out: IC50 VHL tracer displacement. Also noted: host or cells: HEK293. Format: binding. The method, then:
For VHL and LRRK2 target engagement experiments in live and permeabilized cells, the HEK293 cells were transfected with VHL-NanoLuc fusion vector (Promega, N275A) or LRRK2-NanoLuc fusion vector (Promega, NV3401) following Promega's protocol and seeded into white 384-well plate (Corning3570) at a density of 6000 cells/well. To measure NanoBRET in permeabilized cells, the cells were treated with 50 μg/mL digitonin (Sigma, D141), 125 nM VHL tracer/125 nM LRRK2 tracer, testing compounds at decreasing concentrations (12 concentrations with 2-fold serial dilution starting from 33 μM), and NanoBRET NanoGlo Substrate (Promega) at concentration recommended by the manufacturer's protocol. In the maximum signal control samples (DMSO control), DMSO was added instead of testing compounds. In the minimum signal control samples (no tracer control), DMSO and tracer dilution buffer were used to replace testing compounds and tracer separately. The filtered luminescence was measured within 10 min following addition of the substrate on a GloMax Discover microplate reader (Promega) or a PHERAstar (BMG LABTECH) plate reader equipped with a 450-nm bandpass filter (donor) and a 600-nm long pass filter (acceptor). To measure NanoBRET in live cells, the cells were treated with 250 nM VHL tracer/500 nM LRRK2 tracer, testing compounds at testing compounds at decreasing concentrations (12 concentrations with 2-fold serial dilution starting from 33 μM) and incubated at 37° C. in an incubator for 2 h. The plates were then cooled down and added with NanoBRET NanoGlo Substrate and Extracellular NanoLuc Inhibitor (Promega, N2160) before performing the same NanoBRET reading as the permeabilized mode on plate readers. NanoBRET ratio of each well was expressed in milliBRET according to the equation: mBRET=[(signal at […]/signal at 450 nM)−(signal at 610 nMno tracer control/signal at 450 nMno tracer control)]×1000. The fractional occupancy was calculated according to the equation: fractional occupancy=(mBRETtesting compound−mBRETno tracer control)/(mBRETDMSO control−mBRETno tracer control).

Read-outs that look alike come from different tables or passages of the source.

Sequence of VHL (P40337 whole entry, the tested form may be a part): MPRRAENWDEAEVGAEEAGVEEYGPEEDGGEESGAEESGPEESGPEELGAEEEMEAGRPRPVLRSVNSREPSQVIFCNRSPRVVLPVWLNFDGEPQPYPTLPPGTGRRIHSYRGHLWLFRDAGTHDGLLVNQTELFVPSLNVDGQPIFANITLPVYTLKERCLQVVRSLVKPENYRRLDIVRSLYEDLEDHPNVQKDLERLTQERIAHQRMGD
Sequence of LRRK2 (Q5S007 whole entry, the tested form may be a part): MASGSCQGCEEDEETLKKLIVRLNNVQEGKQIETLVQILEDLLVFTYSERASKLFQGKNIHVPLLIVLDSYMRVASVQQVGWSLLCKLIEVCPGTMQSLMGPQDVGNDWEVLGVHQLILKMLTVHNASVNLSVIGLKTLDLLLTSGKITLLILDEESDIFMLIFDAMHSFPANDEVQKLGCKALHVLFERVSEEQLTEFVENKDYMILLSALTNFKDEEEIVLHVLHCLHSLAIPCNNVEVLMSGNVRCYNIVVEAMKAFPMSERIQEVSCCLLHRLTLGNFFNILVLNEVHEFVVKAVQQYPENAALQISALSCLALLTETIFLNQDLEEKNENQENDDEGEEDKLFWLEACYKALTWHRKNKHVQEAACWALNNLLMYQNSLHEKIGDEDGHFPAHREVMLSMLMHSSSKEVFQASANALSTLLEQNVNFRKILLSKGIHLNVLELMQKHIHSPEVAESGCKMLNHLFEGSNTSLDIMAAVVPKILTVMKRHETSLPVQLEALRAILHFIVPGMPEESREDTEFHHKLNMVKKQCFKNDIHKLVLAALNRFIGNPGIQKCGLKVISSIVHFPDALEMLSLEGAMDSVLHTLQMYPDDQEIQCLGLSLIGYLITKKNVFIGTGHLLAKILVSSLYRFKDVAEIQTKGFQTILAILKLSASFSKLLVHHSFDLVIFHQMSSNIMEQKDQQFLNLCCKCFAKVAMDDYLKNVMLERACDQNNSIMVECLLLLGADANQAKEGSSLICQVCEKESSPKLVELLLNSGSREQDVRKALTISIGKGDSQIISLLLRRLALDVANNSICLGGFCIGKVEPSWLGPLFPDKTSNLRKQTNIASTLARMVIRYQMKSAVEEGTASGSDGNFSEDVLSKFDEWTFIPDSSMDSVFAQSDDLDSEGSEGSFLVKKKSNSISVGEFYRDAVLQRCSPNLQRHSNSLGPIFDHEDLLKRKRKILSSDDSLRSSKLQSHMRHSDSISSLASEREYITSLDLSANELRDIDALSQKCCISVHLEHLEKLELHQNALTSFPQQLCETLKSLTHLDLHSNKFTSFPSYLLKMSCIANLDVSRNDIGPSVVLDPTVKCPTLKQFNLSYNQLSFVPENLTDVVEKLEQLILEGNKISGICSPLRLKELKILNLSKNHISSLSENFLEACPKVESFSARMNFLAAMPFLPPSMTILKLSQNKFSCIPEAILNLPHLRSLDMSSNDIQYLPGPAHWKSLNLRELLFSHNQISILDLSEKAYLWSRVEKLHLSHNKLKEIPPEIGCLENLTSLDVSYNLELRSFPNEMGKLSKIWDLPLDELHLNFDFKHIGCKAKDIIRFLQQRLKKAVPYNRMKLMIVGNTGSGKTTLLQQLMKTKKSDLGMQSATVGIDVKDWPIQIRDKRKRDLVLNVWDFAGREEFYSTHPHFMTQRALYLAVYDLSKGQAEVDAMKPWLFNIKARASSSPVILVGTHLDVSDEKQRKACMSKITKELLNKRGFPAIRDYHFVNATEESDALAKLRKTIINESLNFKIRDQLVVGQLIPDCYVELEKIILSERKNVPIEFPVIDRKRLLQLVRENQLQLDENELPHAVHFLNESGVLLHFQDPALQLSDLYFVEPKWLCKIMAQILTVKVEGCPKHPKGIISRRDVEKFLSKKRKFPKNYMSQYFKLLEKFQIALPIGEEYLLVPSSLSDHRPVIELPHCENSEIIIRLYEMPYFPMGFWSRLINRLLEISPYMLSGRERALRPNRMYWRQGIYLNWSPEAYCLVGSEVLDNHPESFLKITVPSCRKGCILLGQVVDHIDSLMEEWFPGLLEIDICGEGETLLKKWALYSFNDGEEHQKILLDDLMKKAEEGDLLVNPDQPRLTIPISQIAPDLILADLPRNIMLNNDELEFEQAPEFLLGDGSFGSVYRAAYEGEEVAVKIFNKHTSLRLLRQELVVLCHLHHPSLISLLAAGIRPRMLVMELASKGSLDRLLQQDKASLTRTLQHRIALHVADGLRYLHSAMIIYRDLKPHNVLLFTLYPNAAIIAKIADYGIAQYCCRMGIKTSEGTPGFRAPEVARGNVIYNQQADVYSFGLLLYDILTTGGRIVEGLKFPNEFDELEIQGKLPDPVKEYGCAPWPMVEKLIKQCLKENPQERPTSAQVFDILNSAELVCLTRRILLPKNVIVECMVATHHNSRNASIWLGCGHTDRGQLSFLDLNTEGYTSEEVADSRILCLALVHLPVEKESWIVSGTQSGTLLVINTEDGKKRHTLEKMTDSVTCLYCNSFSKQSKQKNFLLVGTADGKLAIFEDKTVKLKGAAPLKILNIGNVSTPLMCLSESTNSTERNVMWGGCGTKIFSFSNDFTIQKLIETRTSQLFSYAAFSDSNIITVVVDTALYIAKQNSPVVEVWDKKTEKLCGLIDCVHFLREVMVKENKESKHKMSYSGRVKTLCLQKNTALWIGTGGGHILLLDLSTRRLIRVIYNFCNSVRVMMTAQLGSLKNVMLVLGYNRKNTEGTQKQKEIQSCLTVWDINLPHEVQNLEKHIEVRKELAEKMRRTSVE

Regarding `CNc1nc(Nc2ccc(C(=O)N3CCN(C[C@H]4CC[C@@H](CSC(C)(C)[C@H](NC(=O)C5(F)CC5)C(=O)N5C[C@H](O)CC5C(=O)NCc5ccc(-c6scnc6C)cc5)CC4)CC3)cc2OC)ncc1Cl` (stereo partly shown) [XL01134], the IC50 – broadly, the midpoint of a concentration-inhibition curve – on LRRK2 turned out to be 1.1 µM; at VHL (live HEK293 cells), 0.88 µM; on VHL (permeabilized HEK293 cells), 0.78 µM.

Consider `CNc1nc(Nc2ccc(C(=O)N3CCN(CCOCCOCCSC(C)(C)[C@H](NC(=O)C4(F)CC4)C(=O)N4C[C@H](O)C[C@H]4C(=O)NCc4ccc(-c5scnc5C)cc4)CC3)cc2OC)ncc1Cl` [SD75, (2S,4R)-1-((R)-3-((2-(2-(2-(4-(4-((5-chloro-4-(methylamino)pyrimidin-2-yl)amino)-3-methoxybenzoyl)piperazin-1-yl)ethoxy)ethoxy)ethyl)thio)-2-(1-fluorocyclopropane-1-carboxamido)-3-methylbutanoyl)-4-hydroxy-N-(4-(4-methylthiazol-5-yl)benzyl)pyrrolidine-2-carboxamide], for which the values for the IC50 on LRRK2, on VHL (live HEK293 cells) and at VHL (permeabilized HEK293 cells) were 1.1 µM, 2.5 µM and 1.9 µM, respectively. The “IC50 ratio IC50, per/IC50, live (VHL engagement)” value at VHL (permeabilized vs live mode) is listed as 0.76.

As for `CNc1nc(Nc2ccc(C(=O)N3CCN(C[C@H]4CC[C@H](CSC(C)(C)[C@H](NC(=O)C5(F)CC5)C(=O)N5C[C@H](O)CC5C(=O)NCc5ccc(-c6scnc6C)cc5)CC4)CC3)cc2OC)ncc1Cl` (stereo partly drawn) [XL01126, (2S,4R)-1-((R)-3-((((1R,4R)-4-((4-(4-((5-chloro-4-(methylamino)pyrimidin-2-yl)amino)-3-methoxybenzoyl)piperazin-1-yl)methyl)cyclohexyl)methyl)thio)-2-(1-fluorocyclopropane-1-carboxamido)-3-methylbutanoyl)-4-hydroxy-N-(4-(4-methylthiazol-5-yl)benzyl)pyrrolidine-2-carboxamide], the IC50 at LRRK2 is 2 µM; on VHL (live HEK293 cells) it was 10.1 µM. In addition, the “VHL tracer displacement (in words)” value at VHL (permeabilized HEK293 cells) is reported as “poor displacement”.

The record behind these values is patent US20260001875A1, “AMINOPYRIMIDINYL DERIVATIVES FOR THE TREATMENT OF PARKINSON'S DISEASE” (UNIVERSITY OF DUNDEE, priority 2022, published 2026).
